Test results: article PMC11359915, “Rattlesnake Crotalphine Analgesic Active on Tetrodotoxin-Sensitive Na^+ Current in Mouse Dorsal Root Ganglion Neurons” (Toxins, 2024)

How the values were obtained:
[1] = system: NaV1.7 component of the TTX-sensitive Na^+ current of DRG neurons; format: cell-based, adult mouse (Swiss, Mus musculus)
hNaV1.2–1.6 and hNaV1.8 = details: ref [22],[23],[24]; cited from earlier work
hNaV1.7 = details: cited from earlier work
hNaV1.1 = details: ref [22],[23],[24]; cited from earlier work
[2] = system: NaV channels and voltage-sensitive potassium (KV) channels; details: initially NaV channels, later KV channels; ref [28],[29],[30],[31],[32]; cited from earlier work
Description: (§1) To the best of our knowledge, such an effect of the crotalid peptide on cell plasma membrane constituents has never been described in the literature. The simplest explanation is that crotalphine interacts also with lipid membrane constituents since interactions between gating modifier toxins and the lipid membranes surrounding the channel have been previously evidenced. It is therefore likely that, in addition to the Na^+ channel subtype NaV1.7, the crotalid peptide targets also a second cell plasma membrane component. Further experiments are still needed to identify this second me ...

certain cells = details: ref [28],[29],[30],[31],[32]; cited from earlier work
Description: as §1

DRG neurons = format: cell-based, adult mouse (Swiss, Mus musculus); details: positive control, 0.1%, 5–75 min; mean ± S.E.M., n = 4
Method: The CHO epithelial cell line was cultured as previously described. Primary cultures of DRG neurons were performed using adult female Swiss mice (Mus musculus, 8–12 weeks of age and 25–32 g body weight), purchased from Janvier Elevage (Le Genest-Saint-Isle, France) and acclimatized at the CEA animal facility for at least 48 hr before the experiments. All experimental procedures on mice were permitted by the Animal Ethics Committee of the CEA and the French General Directorate for Research and Innovation (project APAFIS#26651-2020072011192542v1, authorized for E.B. on 20 July 2020 for 5 years). […]
Cell viability was quantified by propidium iodide and trypan blue dye exclusion assays. […] The percentage of viable cells (i.e., the number of non-fluorescent cells relative to the number of total cells) was determined using the ImageJ 1.53g software (National Institutes of Health, Bethesda, MD, USA). At the end of the experiments, the total fluorescence of each well (function of the amount of propidium iodide-positive dead cells) was measured using a CLARIOstar® Plus microplate reader (BMG Labtech, Champigny-Sur-Marne, France).
The data are expressed as the means ± standard error of the mean (S.E.M.) of n different experiments. […]

Which “Na^+ current decreased to % of the initial peak amplitude” value [1] does the source give for `NC1=N[C@H](O)[C@H]2[C@H]3O[C@]4(O)O[C@@H]([C@@H](O)[C@@]2(N1)[C@@H]4O)[C@]3(O)CO` [TTX, tetrodotoxin] here?
Its value is 8.1 ± 5.1%.

What about the “recovery of the current after washout” value [1] of the same compound?
The value was 83.5 ± 4.5%.

With “ProTx-II: tarantula venom peptide, a well-known selective inhibitor of the NaV1.7 channel subtype” as the compound, how does the IC50 (hNaV1.2–1.6 and hNaV1.8) read?
The IC50 was over 0.025 µM.

What about the IC50 (hNaV1.7) of the same compound?
Its IC50 is 0.0003 to 0.0016 µM.

What about the “decrease in the TTX-sensitive Na^+ current amplitude” value ([1]; 10 nM, n = 3, unpublished data) of the same compound?
Its value is 79.2 ± 4.8%.

And the IC50 (hNaV1.1)?
The IC50 was 0.016 µM.

Which results are given for “crotamine: the most abundant protein in the Crotalus durissus terrificus's venom (YKQCHKKGGHCFPKEKICLPPSSDFGKMDCRWRWKCCKKGSG; UniProt Q9PWF3 23-64, looked up)”?
effect on functioning of ionic channels [2]: alter the functioning of ionic channels; effect on cell viability (certain cells): decrease the viability of certain cells

For triton X-100, which “decrease in viability of DRG neurons” value (DRG neurons) is on record?
The value was 89.1 ± 1.7%.
